The source made the active and inactive calls. Rule as the data show it, for most assays here: actives have a measured EC50 and inactives only a lower limit.
Experiments:
[1] = tested on: T-cell; experiment: loss of vesicle association with mouse CD8+ T cells – mouse 2C CD8+ T cells, flow cytometry, dose response (AID 485284); type: functional
[2] = molecular target: Intestinal-type alkaline phosphatase (Homo sapiens, UniProt P09923); experiment: Dose Response confirmation of uHTS hits from a small molecule inhibitors of human intestinal alkaline phosphatase via a luminescent assay. [Related pubchem assays (depositor defined):AID2544, AID2574]; type: functional
Chain of Intestinal-type alkaline phosphatase (P09923 whole entry): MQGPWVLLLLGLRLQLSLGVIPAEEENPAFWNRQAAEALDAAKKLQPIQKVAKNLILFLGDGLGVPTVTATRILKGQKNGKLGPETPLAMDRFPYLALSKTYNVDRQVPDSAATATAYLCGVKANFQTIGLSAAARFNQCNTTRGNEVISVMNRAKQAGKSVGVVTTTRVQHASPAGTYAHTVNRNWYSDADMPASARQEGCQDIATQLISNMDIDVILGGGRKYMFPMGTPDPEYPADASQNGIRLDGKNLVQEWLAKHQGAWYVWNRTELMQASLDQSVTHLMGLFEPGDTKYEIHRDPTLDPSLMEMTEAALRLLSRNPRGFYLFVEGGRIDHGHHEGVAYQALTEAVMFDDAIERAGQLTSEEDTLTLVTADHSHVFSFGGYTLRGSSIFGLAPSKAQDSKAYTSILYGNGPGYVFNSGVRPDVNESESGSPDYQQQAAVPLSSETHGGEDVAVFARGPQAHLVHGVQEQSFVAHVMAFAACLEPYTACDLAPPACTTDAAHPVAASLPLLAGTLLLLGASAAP

[3] = molecular target: Glyceraldehyde-3-phosphate dehydrogenase (Homo sapiens, UniProt P04406)
Chain of Glyceraldehyde-3-phosphate dehydrogenase (P04406 whole entry): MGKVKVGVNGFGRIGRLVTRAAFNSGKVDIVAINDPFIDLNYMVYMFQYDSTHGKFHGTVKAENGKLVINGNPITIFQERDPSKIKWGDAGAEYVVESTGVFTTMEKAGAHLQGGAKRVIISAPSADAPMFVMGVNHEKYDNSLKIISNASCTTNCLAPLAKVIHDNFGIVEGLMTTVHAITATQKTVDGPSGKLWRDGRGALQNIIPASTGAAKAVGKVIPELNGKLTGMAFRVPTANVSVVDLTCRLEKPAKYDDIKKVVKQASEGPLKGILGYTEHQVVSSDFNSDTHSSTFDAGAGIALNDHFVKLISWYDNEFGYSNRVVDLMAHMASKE

[4] = molecular target: T1, Alkaline phosphatase, tissue-nonspecific isozyme (Homo sapiens, UniProt P05186); experiment: potency against alkaline phosphatase TNAP – biochemical, luminescent, dose response, SAR follow-up (AID 1056)
T1 sequence (P05186 whole entry): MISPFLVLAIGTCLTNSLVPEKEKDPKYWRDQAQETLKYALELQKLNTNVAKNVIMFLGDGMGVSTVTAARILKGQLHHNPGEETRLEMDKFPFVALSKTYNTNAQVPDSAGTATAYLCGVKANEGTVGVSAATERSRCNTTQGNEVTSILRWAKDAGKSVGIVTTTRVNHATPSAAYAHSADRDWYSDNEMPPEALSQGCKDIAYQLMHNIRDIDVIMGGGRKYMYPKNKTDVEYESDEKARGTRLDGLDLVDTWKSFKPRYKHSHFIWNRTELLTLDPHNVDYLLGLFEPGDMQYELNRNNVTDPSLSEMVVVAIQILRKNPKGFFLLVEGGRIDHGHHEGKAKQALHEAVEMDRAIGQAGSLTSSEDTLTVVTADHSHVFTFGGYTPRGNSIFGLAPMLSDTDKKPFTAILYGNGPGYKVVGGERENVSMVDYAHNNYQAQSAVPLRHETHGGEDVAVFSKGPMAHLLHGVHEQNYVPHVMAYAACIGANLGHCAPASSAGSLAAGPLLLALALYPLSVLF

[5] = HEK-293T cell viability reduction – luminescence, B-cell screen hits, cytotoxicity control for BCR NF-kB inhibitor project, dose response (AID 489021); type: functional, cell-based;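 also: HEK-293T cells carrying an NF-kB luciferase reporter; cells exposed to compound for about 14 hours before viability readout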
[6] = fluconazole-exposed Candida albicans growth modulators – fluorescence, retest, confirmation (AID 2467); type: functional, cell-based
[7] = molecular target: Dual specificity tyrosine-phosphorylation-regulated kinase 1A (Rattus norvegicus, UniProt Q63470); type: biochemical, Homo sapiens
[8] = molecular target: Heat shock protein HSP 90-alpha (Homo sapiens, UniProt P07900); type: functional, organism-based
[9] = molecular target: T2, Streptokinase A (Streptococcus pyogenes serotype M1, UniProt P10520); experiment: viability-normalized secreted streptokinase activity reduction – plasminogen activation absorbance, OD405, dose response (AID 1914); type: functional, Streptococcus pyogenes M1 GAS;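 also: secreted streptokinase activity via plasminogen activation per viability signal from cell pellet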
T2 sequence (P10520 whole entry): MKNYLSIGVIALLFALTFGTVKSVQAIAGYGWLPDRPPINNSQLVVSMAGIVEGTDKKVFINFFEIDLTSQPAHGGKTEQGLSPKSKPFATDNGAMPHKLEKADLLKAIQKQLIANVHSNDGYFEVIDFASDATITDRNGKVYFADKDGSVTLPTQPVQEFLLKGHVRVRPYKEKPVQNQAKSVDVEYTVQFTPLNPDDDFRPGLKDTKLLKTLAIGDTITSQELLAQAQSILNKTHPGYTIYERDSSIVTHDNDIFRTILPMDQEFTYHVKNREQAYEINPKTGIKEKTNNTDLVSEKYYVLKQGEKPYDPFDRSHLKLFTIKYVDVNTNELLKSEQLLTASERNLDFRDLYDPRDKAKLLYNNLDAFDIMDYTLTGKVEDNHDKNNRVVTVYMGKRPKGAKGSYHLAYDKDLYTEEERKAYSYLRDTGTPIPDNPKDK

[10] = tested on: Streptococcus sp. 'group A'; experiment: Streptococcus pyogenes SK(-)GAS viability under kanamycin – luminescence, BacTiterGlo, confirmation, counter-screen for streptokinase expression inhibitor project, dose response (AID 1900); type: functional, organism-based
[11] = tested on: INS1; experiment: INS-1E survival protection against cytokine death – cell-based, luminescence, retest, dose response (AID 449756); type: functional; details: Rattus norvegicus;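 also: cell death triggered by IL-1 beta plus TNF-alpha plus IFN-gamma mixture; protective hits raise ATP signal compared with cytokine alone wells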
[12] = NIH-3T3 fibroblast cytotoxicity, dose response, cytotoxicity control, cell-based, fluorescence, Alamar Blue, secondary assay (AID 2327); type: functional;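 also: NIH-3T3 mouse fibroblasts cultured with fluconazole at 8 µg/mL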
[13] = tested on: Streptococcus; experiment: GAS UMAA2166 growth inhibition – luminescence, BacTiterGlo, counter-screen for streptokinase expression inhibitor project, dose response (AID 1915); type: functional, organism-based;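 also: potency for reduction of bacterial viability or growth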
[14] = DRD fibroblast viability loss – cell-based, non-viral oncogenic, luminescence, dose response (AID 1934); type: functional; details: Homo sapiens
[15] = tested on: BJ; experiment: BJ-TERT fibroblast viability loss – cell-based, RAS-independent, luminescence, dose response (AID 1933); type: functional; details: Homo sapiens
[16] = alpha-synuclein stem-loop luciferase translation blockers – H4 neuroglioma cells, luminescence, confirmation (AID 1988); type: functional, cell-based
[17] = tested on: BJ; experiment: growth inhibition of engineered Ras-driven BJ cells – cell-based, alamar blue fluorescence, cherrypicked samples, dose response (AID 2631); type: functional; details: Homo sapiens;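 also: confirmatory dose-response assay in RAS-dependent BJ fibroblasts engineered with TERT, LT and ST, with cytotoxicity read by fluorescence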
[18] = tested on: BJ; experiment: BJ-TERT-LT-ST fibroblast viability loss – cell-based, RAS-independent, luminescence, dose response (AID 1935); type: functional; details: Homo sapiens;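 also: BJ fibroblasts immortalized with TERT plus LT and ST oncogenes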
[19] = luciferase reporter signal suppression in cells – H4 neuroglioma cells, luminescence, dose response (AID 1990); type: functional, cell-based
[20] = tested on: HEK293; experiment: EBV LMP1 TES2 canonical NF-kB signalling blockers – cell-based, HEK293, luciferase, cherry-pick, dose response (AID 588343); type: functional; details: Homo sapiens
[21] = luciferase reporter signal reduction – luminescence, H4-C neuroglioblastoma cells, dose response (AID 2458); type: functional, cell-based;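 also: H4 neuroglioblastoma cells stably carrying a luciferase reporter gene fusion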
[22] = cells; type: functional, cell-based
[23] = tested on: BJ; experiment: cells; type: functional, cell-based; details: Homo sapiens
[24] = alpha-synuclein stem-loop translation blockers – luminescence, H4 neuroglioblastoma cells, dose confirmation, confirmation (AID 2454); type: functional, cell-based;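 also: H4 neuroglioblastoma cells carrying an alpha-synuclein 5'UTR luciferase reporter; potency for inhibition of the luciferase signal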
[25] = molecular target: T3, Neuropeptide Y receptor type 1 (Homo sapiens, UniProt P25929); experiment: Fluorescence-based counterscreen for agonists of NPY-Y2: cell-based high-throughput dose response assay for agonists of NPY-Y1.; type: functional
T3 sequence (P25929 whole entry): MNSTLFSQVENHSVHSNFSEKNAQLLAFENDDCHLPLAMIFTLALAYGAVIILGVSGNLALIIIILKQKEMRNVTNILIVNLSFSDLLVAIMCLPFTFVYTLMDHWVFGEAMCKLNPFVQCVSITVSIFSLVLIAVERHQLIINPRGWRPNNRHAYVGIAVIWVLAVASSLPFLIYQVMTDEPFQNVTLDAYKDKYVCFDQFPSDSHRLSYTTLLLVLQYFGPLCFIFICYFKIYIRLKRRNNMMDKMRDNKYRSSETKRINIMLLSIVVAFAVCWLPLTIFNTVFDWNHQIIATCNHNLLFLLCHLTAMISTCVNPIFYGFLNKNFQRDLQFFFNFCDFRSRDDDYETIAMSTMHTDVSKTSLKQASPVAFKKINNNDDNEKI

[26] = tested on: HEK293; experiment: Fluorescence-based counterscreen for potentiators or agonists of NPY-Y2: cell-based high-throughput dose response assay to identify inhibitors of cyclic nucleotide gated ion channel (CNGC) activity. In this assay, the parental HEK293 cell line transfected with a cyclic-nucleotide gated ion channel (CNGC)-based cAMP sensor is used to measure inhibition of isoproterenol-induced CNGC activity by test compound.; type: functional; details: Homo sapiens
[27] = molecular target: T4, Neuropeptide Y receptor type 2 (Homo sapiens, UniProt P49146); experiment: Fluorescence-based cell-based high-throughput dose response assay for agonists of NPY-Y2. [Related pubchem assays: 1703 (Screening assay (CNGC inhibitors).), 1359 (Screening assay (NPY-Y2 potentiators or agonists).), 1304 (Screening assay (NPY-Y1 potentiators or agonists).), 1710 (Screening assay (NPY-Y2 agonists).), 1791 (Summary AID.)]; type: functional
T4 sequence (P49146 whole entry): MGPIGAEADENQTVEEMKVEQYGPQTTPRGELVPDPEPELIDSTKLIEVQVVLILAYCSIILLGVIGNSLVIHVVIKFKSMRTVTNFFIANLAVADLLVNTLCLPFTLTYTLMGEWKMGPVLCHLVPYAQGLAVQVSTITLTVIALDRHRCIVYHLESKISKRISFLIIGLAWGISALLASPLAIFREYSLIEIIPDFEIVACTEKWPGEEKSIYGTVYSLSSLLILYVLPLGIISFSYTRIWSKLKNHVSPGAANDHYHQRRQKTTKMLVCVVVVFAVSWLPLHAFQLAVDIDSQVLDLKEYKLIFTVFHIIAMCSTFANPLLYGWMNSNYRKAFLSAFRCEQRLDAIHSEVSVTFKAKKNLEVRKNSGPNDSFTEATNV

Compound: COc1ccc(C2=Nc3cc(C)ccc3OC2)cc1
- EC50 [1]: 8.65 µM (active)
- IC50 [2]: > 100 µM (inactive)

Compound: COc1ccc(Cc2nnc(N3C(=O)[C@H]4CCCC[C@H]4C3=O)[nH]2)cc1
- IC50 [3]: > 100 µM (not active)
- IC50 [4]: > 100 µM (inactive)

Compound: CC(=C/c1ccco1)/C=N/NC(=O)CSc1nnc(SCc2ccc(C)cc2)s1
- IC50 [5]: > 80 µM (inactive)

Compound: C=CC(C)(C)c1c(O)c(CC=C(C)C)c(O)c2c(=O)c3ccc(O)c(O)c3oc12 [GERONTOXANTHONE I]
- EC50 [6]: > 38 µM (not active)
- AC50 [7]: 8.27 µM (active)
- AC50 [8]: 8.03 µM (active)
- EC50 [9]: > 150 µM (not active)
- EC50 [10]: 2.29 µM (active)
- EC50 [1]: 2.86 µM (active)
- AC50 [11]: 3.34 µM (active)
- EC50 [12]: > 160 µM (inconclusive)
- EC50 [13]: 7.75 µM (active)

Compound: CN(Cc1cnc2nc(N)nc(N)c2n1)c1ccc(C(=O)N[C@@H](CCC(=O)O)C(=O)O)cc1
- EC50 [14]: 0.244 µM (active)
- EC50 [15]: > 150 µM (not active)
- EC50 [16]: < 0.1 µM (active)
- EC50 [17]: > 133 µM (inactive)
- EC50 [18]: > 150 µM (not active)
- EC50 [10]: 0.621 µM (active)
- EC50 [19]: < 0.1 µM (active)
- AC50 [20]: 0.332 µM (active)
- EC50 [21]: 0.074 µM (active)
- EC50 [22]: 0.078 µM (active)
- EC50 [23]: < 0.46 µM (active)
- EC50 [24]: 0.011 µM (active)
- EC50 [13]: 0.65 µM (active)

Compound: O=[N+]([O-])c1cccc2c(N3CCOCC3)ccnc12
- EC50 [25]: > 35.4 µM (not active)
- EC50 [26]: > 35.4 µM (not active)
- EC50 [27]: > 35.4 µM (not active)
